Data: PubChem BioAssay AID248 (DTP/NCI, 2004)
Values joined by “and” are separate entries in the source; they are usually repeats but may differ in a detail not shown here. Identical values can stand only once. Inconclusive results and toxic doses are left out. Rule as the data show it: active = T/C of 150% or more; inactive = T/C below 125%.

Test system: L1210 leukemia ip in BDF1 mice, survival T/C
Experiment: NCI In Vivo Anticancer Drug Screen. Data for tumor model L1210 Leukemia (intraperitoneal) in B6D2F1 (BDF1) mice
Settings: endpoint: mean survival time, higher = longer survival
Protocol: The antitumor activity of compounds was measured in mice bearing transplantable tumors. Survival or tumor size were measured and the results are expressed as the measurement made in the treated group (T) divided by the measurement made in the vehicle treated control group (C). The tumor model used in this assay is L1210 Leukemia (intraperitoneal) in B6D2F1 (BDF1) mice

[1] = dose: 100.0 mg/kg/injection, schedule: Q04DX003 (ip), vehicle: saline with Tween-80
[2] = dose: 200.0 mg/kg/injection, schedule: Q04DX003 (ip), vehicle: saline with Tween-80
[3] = dose: 400.0 mg/kg/injection, schedule: Q04DX003 (ip), vehicle: saline with Tween-80
[4] = dose: 25.0 mg/kg/injection, schedule: Q04DX002 (ip), vehicle: Klucel (hydroxypropylcellulose) (HPC)
[5] = dose: 30.0 mg/kg/injection, schedule: Q01DX Z (ip), vehicle: saline
[6] = dose: 100.0 mg/kg/injection, schedule: Q01DX001 (ip), vehicle: saline
[7] = dose: 200.0 mg/kg/injection, schedule: Q01DX001 (ip), vehicle: saline
[8] = dose: 50.0 mg/kg/injection, schedule: Q01DX001 (ip), vehicle: saline

Measured: T/C

O=C(NC(Cc1cn(Cc2ccccc2)cn1)C(=O)O)OCc1ccccc1 (stereo not drawn)
inactive: dose: 100.0 mg/kg/injection, schedule: Q04DX003 (ip), vehicle: Klucel (hydroxypropylcellulose) (HPC) 104 % of control | dose: 200.0 mg/kg/injection, schedule: Q04DX003 (ip), vehicle: Klucel (hydroxypropylcellulose) (HPC) 104 % of control | dose: 400.0 mg/kg/injection, schedule: Q04DX003 (ip), vehicle: Klucel (hydroxypropylcellulose) (HPC) 97 % of control

O=C1OCC(O)(c2ccccc2)C1c1ccccc1 (stereo not drawn)
inactive: dose: 55.0 mg/kg/injection, schedule: Q01DX Z (ip), vehicle: methylcellulose (MC) 98 % of control | dose: 83.0 mg/kg/injection, schedule: Q01DX Z (ip), vehicle: methylcellulose (MC) 118 % of control | dose: 125.0 mg/kg/injection, schedule: Q01DX Z (ip), vehicle: methylcellulose (MC) 104 % of control

C=CCN(CC=C)c1nc(-c2ccccc2)nc(-c2ccccc2)n1
inactive: dose: 25.6 mg/kg/injection, schedule: Q04DX002 (ip), vehicle: saline with Tween-80 93 % of control | dose: 64.0 mg/kg/injection, schedule: Q04DX002 (ip), vehicle: saline with Tween-80 93 % of control | [1] 92 % of control | dose: 160.0 mg/kg/injection, schedule: Q04DX002 (ip), vehicle: saline with Tween-80 93 % of control | [2] 92 % of control | dose: 400.0 mg/kg/injection, schedule: Q04DX002 (ip), vehicle: saline with Tween-80 89 % of control | [3] 92 % of control

NC(=O)Cn1cnc2c(=S)nc[nH]c21
inactive: dose: 6.25 mg/kg/injection, schedule: Q01DX009 (ip), vehicle: saline with Tween-80 109 % of control | dose: 12.5 mg/kg/injection, schedule: Q01DX009 (ip), vehicle: saline with Tween-80 104 % of control | dose: 12.5 mg/kg/injection, schedule: Q04DX003 (ip), vehicle: saline with Tween-80 104 % of control | dose: 25.0 mg/kg/injection, schedule: Q01DX009 (ip), vehicle: saline with Tween-80 101 % of control | dose: 25.0 mg/kg/injection, schedule: Q04DX003 (ip), vehicle: saline with Tween-80 102 % of control

NC(CSS(=O)(=O)O)=NCCCCc1ccccc1
inactive: dose: 12.5 mg/kg/injection, schedule: Q04DX002 (ip), vehicle: Klucel (hydroxypropylcellulose) (HPC) 91 % of control | [4] 102 % of control

Nc1cc(=O)[nH]c(=S)[nH]1
inactive: dose: 100.0 mg/kg/injection, schedule: Q04DX002 (ip), vehicle: saline 99 % of control | dose: 200.0 mg/kg/injection, schedule: Q04DX002 (ip), vehicle: saline 92 % of control | dose: 400.0 mg/kg/injection, schedule: Q04DX002 (ip), vehicle: saline 101 % of control

CC(/C=N/NC(N)=O)=N\NC(N)=O
inactive: dose: 15.0 mg/kg/injection, schedule: Q01DX Z (ip), vehicle: saline 107 % of control | [5] 107 % of control | dose: 60.0 mg/kg/injection, schedule: Q01DX Z (ip), vehicle: saline 89 % of control | dose: 60.0 mg/kg/injection, schedule: Q01DX Z (oral), vehicle: saline 91 % of control | dose: 120.0 mg/kg/injection, schedule: Q01DX Z (oral), vehicle: saline 89 % of control | dose: 240.0 mg/kg/injection, schedule: Q01DX Z (oral), vehicle: saline 91 % of control | dose: 480.0 mg/kg/injection, schedule: Q01DX Z (oral), vehicle: saline 91 % of control

Cc1ccc(NC(=O)Oc2ccc3ccccc3c2)c([N+](=O)[O-])c1
inactive: [1] 99 % of control | [2] 99 % of control | [3] 89 % of control

NCCCCC(N)C(=O)NCCCCCCNCCCCCCNC(=O)C(N)CCCCN (stereo not drawn)
inactive: dose: 10.0 mg/kg/injection, schedule: Q01DX Z (ip), vehicle: saline 95 % of control | [5] 95 % of control | [6] 90 % of control | dose: 100.0 mg/kg/injection, schedule: Q01DX Z (ip), vehicle: saline 95 % of control | [7] 103 % of control

COc1ccc(/C=N/NC(=O)c2ccco2)cc1OC
inactive: dose: 100.0 mg/kg/injection, schedule: Q01DX001 (ip), vehicle: other 93 % of control | dose: 400.0 mg/kg/injection, schedule: Q01DX001 (ip), vehicle: other 96 % of control

O=[N+]([O-])c1ccc(S(=O)(=O)c2ccccc2)c([N+](=O)[O-])c1
inactive: dose: 6.0 mg/kg/injection, schedule: Q01DX001 (ip), vehicle: saline 93 % of control | dose: 12.0 mg/kg/injection, schedule: Q01DX001 (ip), vehicle: saline 100 % of control | dose: 25.0 mg/kg/injection, schedule: Q01DX001 (ip), vehicle: saline 91 % of control | [8] 100 % of control and 105 % of control | [7] 95 % of control

CNC(=O)O/N=C(\C(=N\OC(=O)NC)c1ccccc1)c1ccccc1
inactive: dose: 100.0 mg/kg/injection, schedule: Q01DX001 (ip), vehicle: carboxymethylcellulose (CMC) 96 % of control | dose: 200.0 mg/kg/injection, schedule: Q01DX001 (ip), vehicle: carboxymethylcellulose (CMC) 96 % of control | dose: 400.0 mg/kg/injection, schedule: Q01DX001 (ip), vehicle: carboxymethylcellulose (CMC) 96 % of control

CC(NC(=O)C1CC2c3cccc4[nH]cc(c34)CC2N(C)C1)C(C)(C)C (stereo not drawn)
inactive: dose: 20.0 mg/kg/injection, schedule: Q01DX001 (ip), vehicle: Klucel (hydroxypropylcellulose) (HPC) 96 % of control | dose: 40.0 mg/kg/injection, schedule: Q01DX001 (ip), vehicle: Klucel (hydroxypropylcellulose) (HPC) 101 % of control | dose: 80.0 mg/kg/injection, schedule: Q01DX001 (ip), vehicle: Klucel (hydroxypropylcellulose) (HPC) 104 % of control

CS(=O)(=O)c1ccccc1C(=O)O
inactive: dose: 50.0 mg/kg/injection, schedule: Q01DX009 (ip), vehicle: saline 93 % of control | dose: 50.0 mg/kg/injection, schedule: Q04DX003 (ip), vehicle: acetone 105 % of control | dose: 100.0 mg/kg/injection, schedule: Q01DX001 (ip), vehicle: acetone 97 % of control | dose: 100.0 mg/kg/injection, schedule: Q01DX009 (ip), vehicle: saline 98 % of control | dose: 100.0 mg/kg/injection, schedule: Q04DX003 (ip), vehicle: acetone 105 % of control | dose: 200.0 mg/kg/injection, schedule: Q01DX001 (ip), vehicle: acetone 101 % of control | dose: 200.0 mg/kg/injection, schedule: Q01DX009 (ip), vehicle: saline 98 % of control | dose: 200.0 mg/kg/injection, schedule: Q04DX003 (ip), vehicle: acetone 103 % of control

CNC(=O)CCCOC(=O)c1ccc([N+](=O)[O-])cc1
inactive: [4] 108 % of control | dose: 50.0 mg/kg/injection, schedule: Q04DX002 (ip), vehicle: Klucel (hydroxypropylcellulose) (HPC) 108 % of control | dose: 100.0 mg/kg/injection, schedule: Q04DX002 (ip), vehicle: Klucel (hydroxypropylcellulose) (HPC) 104 % of control

CC(=O)OCC1OC(N2CCc3ccccc32)C(OC(C)=O)C(OC(C)=O)C1OC(C)=O (stereo not drawn)
inactive: [6] 103 % of control | [7] 102 % of control | dose: 400.0 mg/kg/injection, schedule: Q01DX001 (ip), vehicle: saline 96 % of control

CC(NC(=O)NCCCl)c1ccsc1 (stereo not drawn)
inactive: dose: 2.5 mg/kg/injection, schedule: Q01DX009 (ip), vehicle: Klucel (hydroxypropylcellulose) (HPC) 111 % of control | dose: 5.0 mg/kg/injection, schedule: Q01DX009 (ip), vehicle: Klucel (hydroxypropylcellulose) (HPC) 98 % of control | dose: 10.0 mg/kg/injection, schedule: Q01DX009 (ip), vehicle: Klucel (hydroxypropylcellulose) (HPC) 94 % of control and 92 % of control

CCCNCCCSCc1ccccc1
inactive: [8] 111 % of control | [6] 103 % of control

CC(=O)Oc1ccc(OC(C)=O)c2c1C=CC=CC2
inactive: [1] 104 % of control | [2] 86 % of control | [3] 94 % of control
